# Laboratory results as given in patent publication US9586931B2 (Merck Sharp & Dohme Corp., priority 2012, dated 2017).
# Target: T1, recombinant human GST-Syk (Homo sapiens, UniProt P43405)
# T1 construct: purchased Carna Biosciences 08-176
# Experiment: Homogeneous Time-Resolved Fluorescence (HTRF) assay for the recombinant human Syk enzyme
# Assay type: biochemical
# Settings: recombinant human GST-Syk 5 pM, ATP 25 μM, 10-dose titration 10 μM to 0.508 nM; read-out: rhSYK Activity IC50
# Procedure, shortened: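 GST-hSyk fusion protein phosphorylated a peptide for 45 min at room temperature. The reaction was quenched with 2 nM Eu-anti-phosphotyrosine antibody and 70 nM SA-APC in 15 mM Tris pH 7.5, 40 mM EDTA, 0.01% Tween 20. The HTRF signal was read after 30 min.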
row,IC50 [nM],SMILES
1,3.5,"Cc1cc(Nc2cc(C(F)(F)F)ccn2)nc(-c2cn(C3CCC(C(=O)O)C(C)(C)C3)nn2)c1 (single isomer, unassigned) [Example 3.6, (R or S) 2,2-dimethyl-4-[4-(4-methyl-6-{[4-(trifluoromethyl)pyridin-2-yl]amino}pyridin-2-yl)-1H-1,2,3-triazol-1-yl]cyclohexanecarboxylic acid]"
2,850,"Cc1cc(Nc2nccc(C(F)(F)F)n2)cc(-n2cc([C@]3(O)CC[C@@H](C(=O)OC(C)(C)C)CC3)nn2)c1 [Example 15.6, tert-butyl cis-4-hydroxy-4-[1-(3-methyl-5-{[4-(trifluoromethyl)pyrimidin-2-yl]amino}phenyl)-1H-1,2,3-triazol-4-yl]cyclohexanecarboxylate]"
3,3.3,"Cc1cc(Nc2cc(C(F)(F)F)ccn2)nc(-c2cn(C3CCCCC(O)C3O)nn2)c1 (single isomer, unassigned) [Example 10.4, 3-[4-(4-methyl-6-{[4-(trifluoromethyl)pyridin-2-yl]amino}pyridin-2-yl)-1H-1,2,3-triazol-1-yl]cycloheptane-1,2-diol]"
4,8,"Cc1cc(Nc2nccc(C(F)F)n2)cc(-c2cn(C(C)C(C)(O)CO)nn2)c1 (single isomer, unassigned) [Example 30.3, 3-(4-(3-((4-(Difluoromethyl)pyrimidin-2-yl)amino)-5-methylphenyl)-1H-1,2,3-triazol-1-yl)-2-methylbutane-1,2-diol]"
5,187,"Cc1cc(Nc2nccc(C(F)(F)F)n2)cc(-c2cn(CCN)nn2)c1 [Example 5.74, N-{3-[1-(2-aminoethyl)-1H-1,2,3-triazol-4-yl]-5-methylphenyl}-4-(trifluoromethyl)pyrimidin-2-amine]"
6,39.2,"Cc1cc(Nc2nccc(C(F)(F)F)n2)cc(-c2cn(C[C@@H](C)CO)nn2)c1 [Example 5.73, (2R)-2-methyl-3-[4-(3-methyl-5-{[4-(trifluoromethyl)pyrimidin-2-yl]amino}phenyl)-1H-1,2,3-triazol-1-yl]propan-1-ol]"
7,9.9,"Cc1cc(Nc2ncc(F)c(C(F)F)n2)cc(-c2cn(CC3OC(=O)NC34CC4)nn2)c1 (single isomer, unassigned) [Example 7.34, 7-{[4-(3-{[4-(difluoromethyl)-5-fluoropyrimidin-2-yl]amino}-5-methylphenyl)-1H-1,2,3-triazol-1-yl]methyl}-6-oxa-4-azaspiro[2.4]heptan-5-one]"
8,3,"Cc1cc(Nc2cc(C(F)(F)F)ccn2)nc(-c2cn(CC(O)CN)nn2)c1 (stereo not drawn) [Example 4.22, 1-amino-3-[4-(4-methyl-6-{[4-(trifluoromethyl)pyridin-2-yl]amino}pyridin-2-yl)-1H-1,2,3-triazol-1-yl]propan-2-ol]"
9,3.3,"Cc1cc(Nc2cc(C(F)F)ccn2)nc(-c2cn(CC3CNCCO3)nn2)c1 (single isomer, unassigned) [Example 26.2, N-(4-(difluoromethyl)pyridin-2-yl)-4-methyl-6-(1-(morpholin-2-ylmethyl)-1H-1,2,3-triazol-4-yl)pyridin-2-amine]"
10,2390,"Cc1cc(Nc2nccc(C(F)(F)F)n2)cc(-n2cc([C@]3(O)CC[C@H](C(=O)OC(C)(C)C)CC3)nn2)c1 [Example 15.5, tert-butyl trans-4-hydroxy-4-[1-(3-methyl-5-{[4-(trifluoromethyl)pyrimidin-2-yl]amino}phenyl)-1H-1,2,3-triazol-4-yl]cyclohexanecarboxylate]"
11,15.9,"Cc1cc(Nc2ncc(F)c(C(F)F)n2)cc(-c2cn(CC3OC(=O)NC3C)nn2)c1 (single isomer, unassigned) [Example 7.37, 5-{[4-(3-{[4-(difluoromethyl)-5-fluoropyrimidin-2-yl]amino}-5-methylphenyl)-1H-1,2,3-triazol-1-yl]methyl}-4-methyl-1,3-oxazolidin-2-one]"
12,32.4,"Cc1cc(Nc2nccc(C(F)(F)F)n2)cc(-c2cn(CC(O)CO)nn2)c1 (racemic) [Example 5.76, 3-[4-(3-methyl-5-{[4-(trifluoromethyl)pyrimidin-2-yl]amino}phenyl)-1H-1,2,3-triazol-1-yl]propane-1,2-diol]"
13,50.7,"Cc1cc(Nc2nccc(C(F)(F)F)n2)cc(-c2cn(CCCO)nn2)c1 [Example 5.77, 3-[4-(3-methyl-5-{[4-(trifluoromethyl)pyrimidin-2-yl]amino}phenyl)-1H-1,2,3-triazol-1-yl]propan-1-ol]"
14,152,"Cc1cc(Nc2nccc(C(F)(F)F)n2)cc(-c2cn(CCCN3CCNC3=O)nn2)c1 [Example 5.71, 1-{3-[4-(3-methyl-5-{[4-(trifluoromethyl)pyrimidin-2-yl]amino}phenyl)-1H-1,2,3-triazol-1-yl]propyl}imidazolidin-2-one]"
15,5.4,"Cc1cc(Nc2nccc(C(F)F)n2)cc(-c2cn(CC3CNC(=O)C3)nn2)c1 (single isomer, unassigned) [Example 28.2, 4-((4-(3-((4-(difluoromethyl)pyrimidin-2-yl)amino)-5-methylphenyl)-1H-1,2,3-triazol-1-yl)methyl)pyrrolidin-2-one]"
16,44.9,"Cc1cc(Nc2cc(C(F)(F)F)ccn2)nc(-c2cn(CC(O)C(=O)O)nn2)c1 (stereo not drawn) [Example 14, 2-Hydroxy-3-(4-(4-methyl-6-((4-(trifluoromethyl)pyridin-2-yl)amino)pyridin-2-yl)-1H-1,2,3-triazol-1-yl)propanoic acid]"
17,6.1,"Cc1cc(Nc2cc(C(F)(F)F)ccn2)nc(-c2cn(CC(C)(O)CO)nn2)c1 (stereo not drawn) [Example 10.16, 2-methyl-3-[4-(4-methyl-6-{[4-(trifluoromethyl)pyridin-2-yl]amino}pyridin-2-yl)-1H-1,2,3-triazol-1-yl]propane-1,2-diol]"
18,6.5,"Cc1cc(Nc2nccc(C(F)(F)F)n2)cc(-n2cc(C3(O)CCC(C(=O)O)C(C)(C)C3)nn2)c1 (stereo not drawn) [Example 15.1, 4-hydroxy-2,2-dimethyl-4-[1-(3-methyl-5-{[4-(trifluoromethyl)pyrimidin-2-yl]amino}phenyl)-1H-1,2,3-triazol-4-yl]cyclohexanecarboxylic acid]"
19,3.4,"Cc1cc(Nc2cc(C(F)(F)F)ccn2)nc(-c2cn(C[C@H](O)C(N)=O)nn2)c1 [Example 1.13, (2S)-2-hydroxy-3-[4-(4-methyl-6-{[4-(trifluoromethyl)pyridin-2-yl]amino}pyridin-2-yl)-1H-1,2,3-triazol-1-yl]propanamide]"
20,12.6,"Cc1cc(Nc2cc(C(F)(F)F)ccn2)nc(-c2cn(Cc3nnn[nH]3)nn2)c1 [Example 5.109, 4-methyl-6-[1-(1H-tetrazol-5-ylmethyl)-1H-1,2,3-triazol-4-yl]-N-[4-(trifluoromethyl)pyridin-2-yl]pyridin-2-amine]"
21,14.3,"Cc1cc(Nc2ncc(F)c(C(F)F)n2)cc(-c2cn(C3CCCCC3O)nn2)c1 (single isomer, unassigned) [Example 7.29, 2-[4-(3-{[4-(difluoromethyl)-5-fluoropyrimidin-2-yl]amino}-5-methylphenyl)-1H-1,2,3-triazol-1-yl]cyclohexanol]"
22,7.9,"Cc1cc(Nc2cc(C(F)(F)F)ccn2)nc(-c2cn(C[C@H](C)CO)nn2)c1 [Example 5.82, (2S)-2-methyl-3-[4-(4-methyl-6-{[4-(trifluoromethyl)pyridin-2-yl]amino}pyridin-2-yl)-1H-1,2,3-triazol-1-yl]propan-1-ol]"
23,504,"Cc1cc(Nc2nccc(C(F)(F)F)n2)cc(-c2cn(CC3CCO3)nn2)c1 (racemic) [Example 5.50, N-{3-methyl-5-[1-(oxetan-2-ylmethyl)-1H-1,2,3-triazol-4-yl]phenyl}-4-(trifluoromethyl)pyrimidin-2-amine]"
24,26.6,"COC(=O)c1ccc(C(O)Cn2cc(-c3cc(C)cc(Nc4cc(C(F)(F)F)ccn4)n3)nn2)cc1 (stereo not drawn) [Example 4.17, methyl 4-{1-hydroxy-2-[4-(4-methyl-6-{[4-(trifluoromethyl)pyridin-2-yl]amino}pyridin-2-yl)-1H-1,2,3-triazol-1-yl]ethyl}benzoate]"
25,15.8,"CCC(O)Cn1cc(-c2cc(C)cc(Nc3cc(C(F)(F)F)ccn3)n2)nn1 (racemic) [Example 5.5, 1-[4-(4-methyl-6-{[4-(trifluoromethyl)pyridin-2-yl]amino}pyridin-2-yl)-1H-1,2,3-triazol-1-yl]butan-2-ol]"
26,4.8,"Cc1cc(Nc2cc(C(F)(F)F)ccn2)nc(-c2cn(CC(O)COCC(F)(F)F)nn2)c1 (stereo not drawn) [Example 4.32, 1-[4-(4 methyl-6-{[4-(trifluoromethyl)pyridin-2-yl]amino}pyridin-2-yl)-1H-1,2,3-triazol-1-yl]-3-(2,2,2-trifluoroethoxy)propan-2-ol]"
27,7.3,"Cc1cc(Nc2nccc(C(F)F)n2)cc(-c2cn(CC3(O)CNC(=O)C3)nn2)c1 (single isomer, unassigned) [Example 31.1, 4-((4-(3-((4-(Difluoromethyl)pyrimidin-2-yl)amino)-5-methylphenyl)-1H-1,2,3-triazol-1-yl)methyl)-4-hydroxypyrrolidin-2-one]"
28,102,"Cc1cc(Nc2nccc(C(F)(F)F)n2)cc(-n2ccnn2)c1 [Example 15.11, N-[3-methyl-5-(1H-1,2,3-triazol-1-yl)phenyl]-4-(trifluoromethyl)pyrimidin-2-amine]"
29,2.9,"CCC(CO)n1cc(-c2cc(C)cc(Nc3cc(C(F)(F)F)ccn3)n2)nn1 (stereo not drawn) [Example 13.9, 2-[4-(4-methyl-6-{[4-(trifluoromethyl)pyridin-2-yl]amino}pyridin-2-yl)-1H-1,2,3-triazol-1-yl]butan-1-ol]"
30,325,"Cc1cc(Nc2cc(C(F)(F)F)ccn2)nc(-c2cn(C(C)C(=O)NCc3cccc4nsnc34)nn2)c1 (stereo not drawn) [Example 1.33, N-(2,1,3-benzothiadiazol-4-ylmethyl)-2-[4-(4-methyl-6-{[4-(trifluoromethyl)pyridin-2-yl]amino}pyridin-2-yl)-1H-1,2,3-triazol-1-yl]propanamide]"
